The record followed here is patent US12569506B2, “Methods of treating osteonecrosis with LLP2A-bisphosphonate compounds” (The Regents of the University of California, priority 2016, dated 2026).

For one assay, the system named is osteocytes. Briefly: Cortical bone osteocyte apoptosis (TUNEL) in glucocorticoid-treated mice. The class given is in vivo. Particulars: GC 56 days, one dose of LLP2A-Ale at day 28, sacrifice day 56, TUNEL (FIG. 5). On the procedure:
FIG. 5. Cortical bone osteocyte apoptosis. Mice were treated with PL for 56 days, GC alone for 56 days or GC alone for 28 days, then GC plus one dose of LLP2A-Ale at day 28. Animals were sacrificed at day 56 and the percent of osteocytes that were apoptotic were measured.
Osteocytes die from loss of blood supply and also from glucocorticoid treatment. […] The animals were sacrificed at day 56, the bones were decalcified and then TUNEL assays were performed to determine the number of apoptotic osteocytes. Glucocorticoid treatment alone, at day 56 increased the number of osteocytes that were apoptotic.

Assay [1] concerns dexamethasone-treated mice. The class given is in vivo, BALB/c mice. Particulars: for Samples with three or more osteonecrosis characteristics (number/total) / Samples with three or more osteonecrosis characteristics (percent): day 90. Here is the method: FIG. 7. Prevalence of osteonecrosis in dexamethasone-treated mice. Mice were treated for 90 days with dexamethasone (Dex), 4 mg/l in drinking water or placebo (PL) (fresh water). At day 30, the Dex-treated mice were re-randomized to Dex alone, Dex+250 μg/kg LLP2A-Ale, Dex+500 μg/kg LLP2A-Ale, and Dex+750 μg/kg LLP2A-Ale. The LLP2A-Ale treatments were given on days 30, 45, 60, and 75. All mice were euthanized at day 90. Right and left distal femurs were fixed in 10% neutral buffer formalin and decalcified. The specimens were dehydrated, embedded in paraffin, cut into 5 micron sections and H&E stained. The sections were evaluated for osteonecrosis by bright light microscopy using modified criteria reported by Yang et al., J. Orthop. Res., 27:169-75 (2009)), which defines osteonecrosis by the presence of the five following characteristics: (1) empty lacunae, (2) pyknotic osteocyte nuclei in areas of empty lacunae and necrosis of adjacent bone marrow, (3) presence of excessive fat cells in the bone marrow, (4) cartilage degradation, and (5) presence of fibrin thrombi in the blood vessels. Each GC-treated group and placebo group were assessed for all five osteonecrosis characteristics or the presence of at least three of the five osteonecrosis characteristics described above.
The efficacy of LLP2A-Ale was evaluated over a 90 day study using a mouse model of glucocorticoid-induced osteonecrosis. Seven week-old male mice (BALB/c (n=80, Jackson laboratories, USA) were housed in a sanitary ventilated animal room maintained at 20° C. with a 12-hour light/dark cycle. All animals were handled according to the USDA animal care guidelines with the approval of the UC Davis Committee on Animal Research. The mice were given water and standard commercial rodent chow (22/5 Rodent Diet; Teklad, Madison, WI) ad libitum. The animals were weight randomized to either a placebo group (fresh water) or glucocorticoid only (4 mg/L dexamethasone (Dex) in drinking water) and treated for 90 days. At day 30, the Dex-treated mice were then re-randomized to Dex alone, Dex+250 μg/kg LLP2A-Ale, Dex+500 μg/kg LLP2A-Ale and Dex+750 μg/kg LLP2A-Ale. The LLP2A-Ale treatments were given on days 30, 45, 60 and 75. Additionally, 0.1 mg/kg methotrexate was administered twice weekly by subcutaneous injection from day 1-42 in all groups receiving glucocorticoid.
All the mice were euthanized at day 90. The body weights of all the study animals were assessed each week. If the study animals had 10% loss of body weight compared to the previous week, the dose of dexamethasone was reduced to 2 mg/L, until weight gain was observed. All of the animals were injected with calcein (30 mg/kg) and alizarin red (20 mg/kg) at 7 and 2 days before euthanization.
Both the right and left distal femurs were fixed in 10% neutral buffered formalin and were shaken for 3 days, then decalcified in 5% EDTA until the bones were fully decalcified. The specimens were then processed in ascending concentrations of ethanol and embedded in paraffin. Tissue sections were cut into 5 microns sections, stained with hematoxylin and eosin and evaluated for the presence of osteonecrosis by bright field microscopy at 20× magnification. Experimental methods are also described in Mohan et al., Calif Tissue Int (2016) doi:10.1007/s00223-016-0195-6, which is incorporated herein by reference in its entirety for all purposes. Osteonecrosis was detected using modified criteria reported by Yang el al., (a mouse model for glucocorticoid-induced osteonecrosis: Effect of a steroid holiday. J Orthop Res. 2009; 27:169-75) which defines osteonecrosis as requiring all of the following changes: (1) empty lacunae, (2) pyknotic osteocyte nuclei in areas of empty lacunae and necrosis of adjacent bone marrow, (3) presence of excessive fat cells in the bone marrow, (4) cartilage degradation and (5) presence of fibrin thrombi in the blood vessels. […]

Where [2] appears, read: Dex + LLP2A-Ale 250 μg/kg on days 30, 45, 60, 75.
[3] abbreviates: Dex + LLP2A-Ale 500 μg/kg on days 30, 45, 60, 75.
Setting [4] is: LLP2A-Ale 750 μg/kg on days 30, 45, 60, 75.

The structures appear in SMILES notation. Where two headings read alike, the source gives them in different places.

On to `Cc1ccccc1NC(=O)Nc1ccc(CC(=O)N[C@@H](CCCCNC(=O)/C=C/c2cccnc2)C(=O)N[C@@H](CCCC(=O)O)C(=O)NC2(C(=O)NCCOCCOCCNC(=O)CCC(=O)NCCOCCOCCNC(=O)CCC(=O)N[C@@H](CCCCNC(=O)[C@H](N)CSC3CC(=O)N(CC4CCC(C(=O)NCCCC(O)(P(=O)(O)O)P(=O)(O)O)CC4)C3=O)C(N)=O)CCCCC2)cc1` (some centres unmarked) [LLP2A-Ale], for which the “Cortical bone osteocyte apoptosis (percent of osteocytes apoptotic)” value in the assay with osteocytes is recorded as “prevented osteocyte apoptosis”. Moreover, the results for the “Samples with three or more osteonecrosis characteristics (number/total)” value in assay [1] (setting [2]), in assay [1] (setting [3]) and in assay [1] (setting [4]) were 12/16, 9/16 and 11/16, respectively. The “Samples with three or more osteonecrosis characteristics (percent)” value stood at 75% in assay [1] (setting [2]), 56% in assay [1] (setting [3]) and 69% in assay [1] (setting [4]). Moreover, in assay [1] (Dex alone vs Dex+LLP2A-Ale groups, day 90 (FIG. 7)), the “Number of mice per group showing all five (or at least three) osteonecrosis characteristics” value was “decreased”.
